# Results: the METLIN SMRT retention time set (Domingo-Almenara et al. 2019)
# Experiment: gradient 5% acetonitrile 3 min, to 50% in 2 min, to 85% in 15 min, held 3 min, 100 µL/min
# Settings: column: Zorbax Extend-C18 2.1 x 50 mm; eluents: water / acetonitrile, 0.1% formic acid
# Summary of the method: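 Retention times come from adduct peaks that were picked computationally and then checked by hand. The standards, pure and pooled in mixtures of ~100 molecules, were run on a Zorbax Extend-C18 column (2.1 × 50 mm, 1.8 μm) at 100 μL/min with water and acetonitrile, each with 0.1% formic acid. Detection was by quadrupole time-of-flight mass spectrometry in positive and negative ionization mode, with a dead volume of 40 μL and a dwell volume of 900 μL.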
compound,measurement,value
Cc1ccc(-c2cc3c(=O)n(Cc4noc(-c5ccc6c(c5)OCO6)n4)ccn3n2)c(C)c1,RP-LC retention time,1120 s
O=C(Nc1ccccc1Cl)N1CCC(N2CCN(Cc3ccccc3)C(=O)C2=O)CC1,RP-LC retention time,867 s
Cc1cc(NC(=O)c2ccccc2C(F)(F)F)sn1,RP-LC retention time,713 s
Cn1cc(S(=O)(=O)N2CCCCC2)cc1C(=O)N1CCN(c2cccc(Cl)c2)CC1,RP-LC retention time,1050 s
CCc1sc(NC(=O)Cc2ccc(C)cc2)nc1-c1ccccc1,RP-LC retention time,1150 s
COc1cccc(N2CCCn3c2nc2c3c(=O)n(CC(=O)O)c(=O)n2C)c1,RP-LC retention time,671 s
CCN1CCN(c2cc(C)c3cc(NC(=O)c4cc(-c5ccco5)nc5ccccc45)ccc3n2)CC1,RP-LC retention time,599 s
O=C(CCc1ccccc1)NCC1CCN(Cc2ccccn2)CC1,RP-LC retention time,556 s
Cc1cccc(NC(=O)N2CCCC(Cn3cnc4cccnc43)C2)c1C (centres undefined),RP-LC retention time,672 s
COc1ccc(NC(=O)C2CCN(c3cc(N4CCCC4)ncn3)CC2)cc1OC,RP-LC retention time,616 s
COc1ccc(OC)c(NC(=O)c2cc(NC(=O)C3CCC3)cc3nc(C)ccc23)c1,RP-LC retention time,682 s
COc1ccc(-c2nc(-c3ccc4c(c3)oc(=O)n4C(C)C)no2)c(OC)c1,RP-LC retention time,1080 s
Cc1sc(NC(=O)C(C)C)nc1-c1ccc2c(c1)N(C)C(=O)CO2,RP-LC retention time,831 s
COc1cccc2c(Nc3ccccc3C)cc(C(=O)N3CCSCC3)nc12,RP-LC retention time,689 s
CN(CC1CCOCC1)S(=O)(=O)c1cccc(Cl)c1,RP-LC retention time,876 s
Cc1ccc(N2CC(c3nc(-c4ccc5c(c4)nnn5C)no3)CC2=O)cc1C (centres undefined),RP-LC retention time,880 s
COc1ccc(-c2noc(Cn3ccn(-c4ccccc4)c(=O)c3=O)n2)cc1,RP-LC retention time,794 s
O=C1CC(c2noc(C3CCCC3)n2)CN1c1ccccc1 (centres undefined),RP-LC retention time,917 s
CCSc1nc2ccc(NS(=O)(=O)c3ccc(F)c(C)c3)cc2s1,RP-LC retention time,1060 s
CCOC(=O)C1CCN(C(=O)Cn2nc3cc(-c4ccccc4)nc(C)n3c2=O)CC1,RP-LC retention time,858 s
Cc1ccc(NC(=O)Cn2nc3cc(-c4ccccc4)nc(C)n3c2=O)c(C)c1,RP-LC retention time,985 s
CC(C)CC(NC(=O)Cc1ccc(Cl)cc1)C(=O)Nc1nc2ccccc2[nH]1 (centres undefined),RP-LC retention time,767 s
CCc1cccc(NC(=O)C2CCN(S(=O)(=O)c3cn(CC)cn3)CC2)c1,RP-LC retention time,794 s
CCOC(=O)/C=C/c1c(C)[nH]c(=O)[nH]c1=O,RP-LC retention time,610 s
Cn1c(NC(=O)c2ccc(Cl)cc2)cc(=O)n(C)c1=O,RP-LC retention time,660 s
CCn1cc(CN2CCC(C(=O)NC(C)c3ccccc3)CC2)c2cc(OC)ccc21 (centres undefined),RP-LC retention time,707 s
c1ccc2c(c1)OCC(c1nc(-c3ccc(-n4cccn4)nc3)no1)O2 (centres undefined),RP-LC retention time,1090 s
Cc1ccc(N2CC(c3nc(-c4ccc5c(c4)nc(C)c(=O)n5C)no3)CC2=O)cc1 (centres undefined),RP-LC retention time,837 s
COc1cc(Cl)c(NS(=O)(=O)c2cc(-c3cc(C(F)(F)F)[nH]n3)sc2C)c(OC)c1,RP-LC retention time,1030 s
CCN1C(=O)NC(c2cccc(F)c2)C2=C1CN(CCC(=O)NCCOC)C2=O (centres undefined),RP-LC retention time,586 s
Cc1cc(C)n(Cc2nc(-c3ccc(NC(=O)COc4ccccc4)cc3)oc2C)n1,RP-LC retention time,974 s
CCOC(=O)C1CCN(C(=O)c2sc3ncn(CC(=O)N4CCCCC4C)c(=O)c3c2C)CC1 (centres undefined),RP-LC retention time,776 s
O=C(Cc1ccccc1Br)NC1CCN(c2cc(-c3ccccc3)[nH]n2)C1 (centres undefined),RP-LC retention time,665 s
CC(C)NC(=O)N(CC(=O)N1CCc2sccc2C1COc1ccccc1)C(C)C (centres undefined),RP-LC retention time,892 s
CCOCC(=O)Nc1ccc(-c2cn3c(C(=O)N(C)C)csc3n2)cc1,RP-LC retention time,647 s
COc1ccc(NC(=O)C2CCCN(c3nccnc3Sc3ccccc3)C2)cc1F (centres undefined),RP-LC retention time,1050 s
Cc1noc(C)c1CNC(=O)NC1CCCCC1,RP-LC retention time,706 s
CCc1nnc(-c2ccc3ccn(CC(=O)NCc4ccccc4)c3c2)o1,RP-LC retention time,1300 s
CCc1cc(C(=O)NC2CC2)nc2cc(-c3ccsc3)nn12,RP-LC retention time,1010 s
O=C(Cn1cnc2ccccc21)NCCCn1ccc2ccccc21,RP-LC retention time,605 s
Cc1nc2ccc3nc(NC(=O)c4snnc4C)sc3c2s1,RP-LC retention time,772 s
COc1ccc(N2CC(c3noc(-c4ccc(C(C)(C)C)cc4)n3)CC2=O)cc1OC (centres undefined),RP-LC retention time,1140 s
COc1cc(Cl)ccc1C(=O)N1CCN=C1N1CCN(c2ccccc2F)CC1,RP-LC retention time,749 s
CN(C)c1cccc(C(=O)N2CCC3(CC2)N=C(c2ccc(Br)cc2)NO3)c1,RP-LC retention time,867 s
Cc1ccc2[nH]c(=O)c(CCC(=O)NCCN3CCc4ccccc4C3)cc2c1,RP-LC retention time,634 s
CCOC(=O)Cn1nc(-c2nc(-c3ccc(Cl)cc3)no2)ccc1=O,RP-LC retention time,1040 s
Cn1nc(C(=O)N2CCN(c3cc(-c4ccccc4)ncn3)CC2)ccc1=O,RP-LC retention time,547 s
CCCN(CC(=O)N(Cc1ccco1)CC1CCCO1)C(=O)c1ccccc1OC (centres undefined),RP-LC retention time,870 s
CSc1ccc(Cl)c(C(=O)Nc2ccc3c(N4CCOCC4)ncnc3c2)c1,RP-LC retention time,669 s
Cn1nc(C(=O)N2CCCCC2)c2c1CCN(C(=O)CCC(=O)N1CCCCCC1)C2,RP-LC retention time,668 s
COc1cc(NC(=O)Nc2cccc(-c3nccnc3N3CCCC3)c2)cc(OC)c1,RP-LC retention time,596 s
Cc1nc2c(sc3nc(-c4ccccc4)ccc32)c(=O)n1CC(=O)Nc1ccccc1Cl,RP-LC retention time,1090 s
Cc1ccccc1-c1noc(C2CCCN2C(=O)Nc2ccccc2Cl)n1 (centres undefined),RP-LC retention time,606 s
O=C(NCCc1cccs1)c1c(O)c2cccnc2n(-c2cccc(F)c2)c1=O,RP-LC retention time,1180 s
CC(C)Cc1cc(-c2nnc3sc(-c4ccccc4F)nn23)n[nH]1,RP-LC retention time,889 s
CCn1cnc2c(-c3ccccc3)cn(CC(=O)NCc3ccco3)c2c1=O,RP-LC retention time,796 s
CC(C)CC(=O)Nc1cc2c(cc1S(=O)(=O)c1ccc(F)cc1)n(C)c(=O)n2C,RP-LC retention time,847 s
Cc1ccc(-c2nc(N)n(C(=O)C3CC3)n2)cc1,RP-LC retention time,872 s
CCC(=O)Nc1ccc(CCc2nc3ccc(C(=O)NCCC4=CCCCC4)cc3[nH]2)cc1,RP-LC retention time,696 s
COc1cccc(-c2nc(-c3ccc(S(=O)(=O)N4CCCCC4)cc3)no2)c1,RP-LC retention time,1270 s
CCc1nnc(-c2nnc(NCCOc3ccccc3OC)c3ccccc23)o1,RP-LC retention time,790 s
Cc1c(-c2noc(-c3ccc4c(c3)OCO4)n2)nnn1-c1ccc(F)cc1,RP-LC retention time,745 s
CCOc1cccc2sc(N(CCN(C)C)C(=O)c3ccco3)nc12,RP-LC retention time,710 s
O=C(NCc1ccco1)C1CCN(c2nnc3ccc(C(F)(F)F)cn23)CC1,RP-LC retention time,715 s
COCC(=O)N1CCC(Oc2nccnc2N2CCc3ccccc32)C1 (centres undefined),RP-LC retention time,779 s
CC(C)c1ccc(N2C(=O)C3N=NN(Cc4nc(-c5ccc6c(c5)OCO6)no4)C3C2=O)cc1 (centres undefined),RP-LC retention time,1060 s
O=C(NCCc1ccccc1)NCC1CCN(Cc2ccco2)CC1,RP-LC retention time,562 s
CCc1nn2c(CNS(=O)(=O)c3ccc(OC)cc3)c(-c3ccccc3)nc2s1,RP-LC retention time,886 s
Cn1cc(S(=O)(=O)N2CCC(C(=O)NCc3cccnc3)CC2)cc1C(=O)N1CCCC1,RP-LC retention time,674 s
CCCC(=O)Nc1ccc(-c2nc(-c3ccc(Cl)cc3)no2)cc1,RP-LC retention time,1240 s
CC1CCCN(C(=O)c2cn(-c3cc(-c4nc(C5CC5)no4)ccn3)cn2)C1 (centres undefined),RP-LC retention time,887 s
COc1ccc(Cl)cc1NC(=O)CSc1ccc(-c2ccccn2)nn1,RP-LC retention time,934 s
O=S(=O)(c1ccccc1)N1[C@H]2CC[C@@H]1c1cncnc1C2,RP-LC retention time,678 s
Fc1ccc(OCc2nn3c(-c4cccnc4)nnc3s2)cc1,RP-LC retention time,781 s
O=C(CN(c1ccc(F)cc1)S(=O)(=O)c1cccnc1)NCCc1ccccc1,RP-LC retention time,789 s
CCC1CN2C=NC(N3CCN(C(=O)Nc4cc(C)ccc4OC)CC3)=CC2=N1 (centres undefined),RP-LC retention time,658 s
Cc1ccc(Oc2nccn3c(=O)n(CC(=O)NCCCc4ccccc4)nc23)cc1,RP-LC retention time,928 s
O=C(Nc1cccc(Cl)c1)C1CCN(S(=O)(=O)c2cc(-c3noc(C4CC4)n3)cs2)CC1,RP-LC retention time,1100 s
Cc1nnc(N2CCC(C(=O)N3CCN(c4ccccn4)CC3)CC2)c2nn(-c3ccccc3)c(C)c12,RP-LC retention time,569 s
CN1CCN(CCNc2ccc(CO)c3sc4ccccc4c(=O)c23)CC1,RP-LC retention time,616 s
CCOC(=O)c1cnc2nc(C)ccc2c1Nc1cc(OC)c(OC)c(OC)c1,RP-LC retention time,671 s
CSCCC(NS(=O)(=O)c1ccc(Oc2ccccc2C)cc1)C(=O)O (centres undefined),RP-LC retention time,852 s
Cc1nn(-c2ccc(N3CCOCC3)nn2)c(C)c1CCC(=O)NCCCc1ccco1,RP-LC retention time,692 s
CCNC(=O)N1CC=C(C(=O)Nc2ccccc2)CC1,RP-LC retention time,658 s
Cc1ccc(CC(=O)NC2CCN(c3ccc(F)cc3)C2=O)cc1 (centres undefined),RP-LC retention time,828 s
O=C(NCCc1csc(-c2cccs2)n1)C1CCN(C(=O)CCC2CCCC2)CC1,RP-LC retention time,901 s
Cc1ccc(Cn2nc(-c3nc(C(C)(C)C)no3)ccc2=O)cc1,RP-LC retention time,1130 s
CCc1ccc(NC(=O)CN2C(=O)CCCc3cc(S(=O)(=O)N4CCCC4)ccc32)cc1,RP-LC retention time,918 s
COc1cc(Cc2nc(-c3cccc(-c4ccn[nH]4)c3)no2)cc(OC)c1,RP-LC retention time,937 s
